SMILES strings stand for the structures.

This experiment concerns the target T1, GABA A α5 (α5β3γ2) (Homo sapiens, UniProt P18507+P31644).
T1 construct: expressed in transfected cells; host or cells: HEK293 (transiently transfected), membranes
The experiment can be described thus: [3H]flumazenil competition binding assay, human GABA A α5 receptors in HEK293 cells. The settings on record: competition for [3H]flumazenil (0.5 nM); HEK293 cells expressing human (transiently transfected) receptors; means of two determinations; read-out: hKi GABA A α5. The procedure:
Membrane Preparation and Binding Assay
The affinity of compounds at GABA A receptor subtypes was measured by competition for [3H]flumazenil (85 Ci/mmol; Roche) binding to HEK293 cells expressing rat (stably transfected) or human (transiently transfected) receptors of composition α1β3γ2, α2β3γ2, α3β3γ2 and α5β3γ2.
Cell pellets were suspended in Krebs-tris buffer (4.8 mM KCl, 1.2 mM CaCl2, 1.2 mM MgCl2, 120 mM NaCl, 15 mM Tris; pH 7.5; binding assay buffer), homogenized by polytron for ca. 20 sec on ice and centrifuged for 60 min at 4° C. (50000 g; Sorvall, rotor: SM24=20000 rpm). The cell pellets were resuspended in Krebs-tris buffer and homogenized by polytron for ca. 15 sec on ice. Protein was measured (Bradford method, Bio-Rad) and aliquots of 1 mL were prepared and stored at −80° C.
Radioligand binding assays were carried out in a volume of […] (96-well plates) which contained […] of cell membranes, [3H]flumazenil at a concentration of 1 nM for α1, α2, α3 subunits and 0.5 nM for α5 subunits and the test compound in the range of […]. Nonspecific binding was defined by 10^−5 M diazepam and typically represented less than 5% of the total binding. Assays were incubated to equilibrium for 1 hour at 4° C. and harvested onto GF/C uni-filters (Packard) by filtration using a Packard harvester and washing with ice-cold wash buffer (50 mM Tris; pH 7.5). After drying, filter-retained radioactivity was detected by liquid scintillation counting. Ki values were calculated using Excel-Fit (Microsoft) and are the means of two determinations.
Representative test results, obtained by the above described assay measuring binding affinity to HEK293 cells expressing human (h) receptors, are shown in table 1 below.

On to `O=C(NCC1CC1)c1ccc(OCc2c(-c3ccc(F)c(F)c3)noc2CO)nc1` [Example 30, N-Cyclopropylmethyl-6-[3-(3,4-difluoro-phenyl)-5-hydroxymethyl-isoxazol-4-ylmethoxy]-nicotinamide], for which the Ki came to 4 nM. As for `O=C(NCC(F)(F)F)c1ccc(OCc2c(-c3ccc(F)c(F)c3)noc2CO)nc1` [Example 31, 6-[3-(3,4-Difluoro-phenyl)-5-hydroxymethyl-isoxazol-4-ylmethoxy]-N-(2,2,2-trifluoro-ethyl)-nicotinamide], the Ki amounted to 2.7 nM. Under `CC(NC(=O)c1ccc(OCc2c(-c3ccc(F)c(F)c3)noc2CO)nc1)C(F)(F)F` (stereo not drawn) [Example 32, 6-[3-(3,4-Difluoro-phenyl)-5-hydroxymethyl-isoxazol-4-ylmethoxy]-N-(2,2,2-trifluoro-1-methyl-ethyl)-nicotinamide] stands 1.8 nM. In the case of `O=C(NC1CC1)c1ccc(OCc2c(-c3ccc(F)c(F)c3)noc2CO)nc1` [Example 33, N-Cyclopropyl-6-[3-(3,4-difluoro-phenyl)-5-hydroxymethyl-isoxazol-4-ylmethoxy]-nicotinamide] it was 3.1 nM; in that of `CC(C)(CO)NC(=O)c1ccc(OCc2c(-c3ccc(F)c(F)c3)noc2CO)nc1` [Example 34, 6-[3-(3,4-Difluoro-phenyl)-5-hydroxymethyl-isoxazol-4-ylmethoxy]-N-(2-hydroxy-1,1-dimethyl-ethyl)-nicotinamide], 13.6 nM; in that of `O=C(NCC(F)(F)C(F)(F)F)c1ccc(OCc2c(-c3ccc(F)c(F)c3)noc2CO)nc1` [Example 35, 6-[3-(3,4-Difluoro-phenyl)-5-hydroxymethyl-isoxazol-4-ylmethoxy]-N-(2,2,3,3,3-pentafluoro-propyl)-nicotinamide], 6.8 nM. Consider `COCCNC(=O)c1ccc(OCc2c(-c3ccc(F)c(F)c3)noc2CO)nc1` [Example 36, 6-[3-(3,4-Difluoro-phenyl)-5-hydroxymethyl-isoxazol-4-ylmethoxy]-N-(2-methoxy-ethyl)-nicotinamide], for which the Ki stood at 7.7 nM.

Regarding `CC[C@H](CO)NC(=O)c1ccc(OCc2c(-c3ccc(F)c(F)c3)noc2CO)nc1` [Example 37, 6-[3-(3,4-Difluoro-phenyl)-5-hydroxymethyl-isoxazol-4-ylmethoxy]-N-([R]-1-hydroxymethyl-propyl)-nicotinamide], the Ki came out at 4.4 nM. Under `CC[C@@H](CO)NC(=O)c1ccc(OCc2c(-c3ccc(F)c(F)c3)noc2CO)nc1` [Example 38, 6-[3-(3,4-Difluoro-phenyl)-5-hydroxymethyl-isoxazol-4-ylmethoxy]-N-([S]-1-hydroxymethyl-propyl)-nicotinamide] stands 1.3 nM; under `Cn1cc(NC(=O)c2ccc(OCc3c(-c4ccc(F)c(F)c4)noc3CO)nc2)cn1` [Example 39, 6-[3-(3,4-Difluoro-phenyl)-5-hydroxymethyl-isoxazol-4-ylmethoxy]-N-(1-methyl-1H-pyrazol-4-yl)-nicotinamide], 2.1 nM; under `CC(C)(C)NC(=O)c1ccc(OCc2c(-c3ccc(F)c(F)c3)noc2CO)nc1` [Example 40, N-tert-Butyl-6-[3-(3,4-difluoro-phenyl)-5-hydroxymethyl-isoxazol-4-ylmethoxy]-nicotinamide], 11.8 nM. In the case of `O=C(NN1CCOCC1)c1ccc(OCc2c(-c3ccc(F)c(F)c3)noc2CO)nc1` [Example 41, 6-[3-(3,4-Difluoro-phenyl)-5-hydroxymethyl-isoxazol-4-ylmethoxy]-N-morpholin-4-yl-nicotinamide] it was 1.1 nM; in that of `O=C(NN1CCCC1)c1ccc(OCc2c(-c3ccc(F)c(F)c3)noc2CO)nc1` [Example 42, 6-[3-(3,4-Difluoro-phenyl)-5-hydroxymethyl-isoxazol-4-ylmethoxy]-N-pyrrolidin-1-yl-nicotinamide], 4.5 nM; in that of `O=C(c1ccc(OCc2c(-c3ccccn3)noc2CO)nc1)N1CCS(=O)(=O)CC1` [Example 43, (1,1-Dioxo-1,6-thiomorpholin-4-yl)-[6-(5-hydroxymethyl-3-pyridin-2-yl-isoxazol-4-ylmethoxy)-pyridin-3-yl]-methanone], 10.8 nM.

Take `CC(C)NC(=O)c1ccc(OCc2c(-c3ccccn3)noc2CO)nc1` [Example 44, 6-(5-Hydroxymethyl-3-pyridin-2-yl-isoxazol-4-ylmethoxy)-N-isopropyl-nicotinamide]: the Ki was 0.7 nM. In the case of `O=C(NC1CCOC1)c1ccc(OCc2c(-c3ccccn3)noc2CO)nc1` (stereo not drawn) [Example 45, 6-(5-Hydroxymethyl-3-pyridin-2-yl-isoxazol-4-ylmethoxy)-N-(tetrahydrofuran-3-yl)-nicotinamide], the Ki was 1.8 nM.

For the compound `CN(C)NC(=O)c1ccc(OCc2c(-c3ccccn3)noc2CO)nc1` [Example 46, 6-(5-Hydroxymethyl-3-pyridin-2-yl-isoxazol-4-ylmethoxy)-nicotinic acid N′,N′-dimethyl-hydrazide], the Ki came out at 2.5 nM.

Turning to `O=C(NC1CCOCC1)c1ccc(OCc2c(-c3ccccn3)noc2CO)nc1` [Example 47, 6-(5-Hydroxymethyl-3-pyridin-2-yl-isoxazol-4-ylmethoxy)-N-(tetrahydropyran-4-yl)-nicotinamide], the Ki is 1.1 nM.

As for `O=C(NN1CCOCC1)c1ccc(OCc2c(-c3ccccn3)noc2CO)nc1` [Example 48, 6-(5-Hydroxymethyl-3-pyridin-2-yl-isoxazol-4-ylmethoxy)-N-morpholin-4-yl-nicotinamide], the Ki amounted to 1.7 nM.

In the case of `CCCCc1noc(CO)c1COc1ccc(C(=O)NC(C)C)cn1` [Example 49, 6-(3-Butyl-5-hydroxymethyl-isoxazol-4-ylmethoxy)-N-isopropyl-nicotinamide], the Ki worked out at 16 nM. As to `CCCCc1noc(CO)c1COc1ccc(C(=O)NC2(C)COC2)cn1` [Example 50, 6-(3-Butyl-5-hydroxymethyl-isoxazol-4-ylmethoxy)-N-(3-methyloxetan-3-yl)-nicotinamide], the Ki came to 8.7 nM. Under `CCCCc1noc(CO)c1COc1ccc(C(=O)NCC(F)(F)F)cn1` [Example 51, 6-(3-Butyl-5-hydroxymethyl-isoxazol-4-ylmethoxy)-N-(2,2,2-trifluoroethyl)-nicotinamide] stands 10.2 nM. Take `CCCCc1noc(CO)c1COc1ccc(C(=O)NC2CCC2)cn1` [Example 52, 6-(3-Butyl-5-hydroxymethyl-isoxazol-4-ylmethoxy)-N-cyclobutyl-nicotinamide]: the Ki turned out to be 13.7 nM. For `CCCCc1noc(CO)c1COc1ccc(C(=O)N2CCC2)cn1` [Example 53, Azetidin-1-yl-[6-(3-Butyl-5-hydroxymethyl-isoxazol-4-ylmethoxy)-pyridin-3-yl]-methanone], the Ki was determined as 51.3 nM. Under `O=C(c1ccc(OCc2c(-c3ccccn3)noc2CO)nc1)N1CCOCC1` [Example 54, [6-(5-Hydroxymethyl-3-pyridin-2-yl-isoxazol-4-ylmethoxy)-pyridin-3-yl]-morpholin-4-yl-methanone] stands 67.2 nM; under `CCCCc1noc(CO)c1COc1ccc(C(=O)N2CCS(=O)(=O)CC2)cn1` [Example 55, [6-(3-Butyl-5-hydroxymethyl-isoxazol-4-ylmethoxy)-pyridin-3-yl]-(1,1-dioxo-thiomorpholin-4-yl)-methanone], 50.5 nM. On to `O=C(c1ccc(OCc2c(-c3ccc(F)cn3)noc2CO)nc1)N1CCS(=O)(=O)CC1` [Example 56, (1,1-Dioxo-1,6-thiomorpholin-4-yl)-{6-[3-(5-fluoro-pyridin-2-yl)-5-hydroxymethyl-isoxazol-4-ylmethoxy]-pyridin-3-yl}-methanone], for which the Ki worked out at 13.5 nM.

These data come from patent US8222246B2, “Substituted isoxazoles” (Hoffmann-La Roche Inc., priority 2009, dated 2012).
